The values below come from patent US20050113317A1, “Combination of dehydroepiandrosterone or dehydroepiandrosterone-sulfate with a cromone for treatment of asthma or chronic obstructive pulmonary disease” (priority 2003, published 2005).

“And” between values parts separate entries of the source, which are not always exact repeats. Identical values can stand only once.

Data set [1] concerns HT-29 SF cells. Briefly: Reversal of DHEA effect on cell cycle. The settings on record: 25 FM DHEA. In kind it is cell-based, human.
Data set [2] can be described thus: Particle size of jet-milled / spray-dried DHEA-S (Malvern Mastersizer X, light microscope). In kind it is physicochemical. As to conditions: two batches, visual examination of dispersions. As for the experimental part: Approximately 1 g sample was passed through the jet mill, once, and approximately 2 g sample were passed through the jet mill twice. […] The resulting solution was sonicated for 3 minutes and appeared fully dispersed. The dispersed solutions were tested on a Malvern Mastersizer X with a small volume sampler (SVS) attachment. One sample of dispersed material was tested 5 times. The median particle size or D (v, 0.5) of unmilled material was 52.56 μm and the % RSD (relative standard deviation) was 7.61 for the 5 values. The D (v, 0.5) for a single pass through the jet mill was 3.90 μm and the % RSD was 1.27, and the D (v, 0.5) from a double pass through the jet mill 3.25 μm and the % RSD was 3.10.
The solution was spray-dried with a B-191 Mini Spray-Drier (Buchi, Flawil, Switzerland) with an inlet temperature of 55° C., outlet temperature of 40° C., at 100% aspirator, at 10% pump, nitrogen flow at 40 mbar and spray flow at 600 units. The spray-dried product was suspended in hexane and Span85 surfactant added to reduce agglomeration. The dispersions were sonicated with cooling for 3-5 minutes for complete dispersion and the dispersed solutions tested on a Malvern Mastersizer X with a Small Volume Sampler (SVS) attachment. […] Visual examination by light microscope of the dispersions of each batch confirmed that spray drying produced small respirable size particles. […]

The test system of data set [3] is Intracellular adenosine in various Rat Tissues. Briefly: In vivo effect on adenosine levels in rat tissues. As for the experimental part: Folinic acid (50 mg/kg) was administered intraperitoneally once daily for fourteen days. […] Hearts were removed from animals and flash frozen in liquid nitrogen with 10 s of death. Liver and lungs were removed en bloc and flash frozen with 30 s of death. Brain tissue was subsequently dissected.

Data set [4] concerns HT-29 SF cells. Kind of data set: DHEA effect on cell cycle (flow cytometry). In kind it is cell-based, human.
The test system of data set [5] is rat peritoneal mast cells. Briefly: Mast cell degranulation (histamine secretion) after compound 48/80. In kind it is cell-based. As for the experimental part:
We determined whether DHEA-sulfate would reduce mast cell degranulation after stimulation with compound 48/80 in rat peritoneal mast cells. Mast cell degranulation was quantified by measurement of histamine, a substance contained within the secretory granules of mast cells. The release of histamine is believed to parallel the release of leukotrienes and contribute to the respiratory dysfunction.
Freshly isolated rat peritoneal mast cells (2×10^5 cells) were pre-incubated for 5 min at 37° C. in a Balanced Salt Solution containing 150 mM NaCl (pH 7.4), 2.7 mM KCl, 0.9 mM CaCl2, 4 mM Na2HPO4, 2.7 mM KH2PO4, 1.75 mg/ml BSA and 0.1 μg/ml compound 48/80.
Following incubation, the mixture is cooled to 4° C. then centrifuged at 4500 rpm for 5 min. The supernatant is collected and mixed for 30 min at 4° C. with 5% TCA (trichloroacetic acid) to cause protein precipitation. After centrifugation at 9500×g for 15 min, the supernatant is collected and mixed with 0.25 M HCl. Thereafter, the samples are mixed with 2M NaOH and 0.2% OPT (ortho-phtalaldehyde) and incubated for 30 min at 4° C. in darkness, after which time the reaction is stopped by addition of 0.5 M H2SO4.
The amount of secreted histamine is quantified by measuring the fluorescence intensity at λex=360 nm and λem=450 nm using a spectrofluorimeter (GeminiXS, Molecular Devices). The results are expressed as a percent inhibition of control histamine secretion.

Data set [6] in a line: HPLC analysis of drug degradation during jet milling. It is filed as physicochemical. The settings on record: HPLC peak area vs unmilled standard; single- and double-pass. On the procedure:
Two vials (A; single-pass; 150 mg) and (B double-pass; 600 mg) of the micronized drug were available for determining drug degradation during jet milling micronization. […] The chromatographic peak area for the HPLC assay of the unmilled drug standard solution (10 mg/ml) gave a value of 23,427. […] The chromatographic peak areas for vials A and B were 11,979 and 11,677, respectively.

Data set [7] in a line: Short-term solution stability of DHEA-S nebulizer formulation. It is filed as physicochemical. The settings on record: for appearance / solution stability: 10 mg/mL in 0.12% NaCl. On the procedure: Aliquots of this solution are filled into clear glass vials and stored at RT (24-26° C.) and at 40° C. The samples are checked daily for DHEA-S content, DHEA content, and appearance. For each time point, duplicate samples are withdrawn and diluted from each vial. […] The study is stopped on day three. […] The solution should easily be stable for the day of reconstitution in a clinical trial. The following section describes the aerosol properties of this formulation.

Data set [8] can be described thus: Solubility of DHEA-S in NaCl media. In kind it is physicochemical. The source says:
Inhalation of pure water can produce a cough stimulus. […] The temperature effect is weaker at high NaCl concentrations.

The nature of data set [9]: Solubility remarks in text. It is filed as physicochemical. The settings on record: 10^-4 M; mast cell assay conditions.
The nature of data set [10]: Solid-state stability with and without lactose at 50° C. (DHEA formed, HPLC). In kind it is physicochemical. As to conditions: 1 week at 50° C.; neat and lactose blend. An excerpt:
These conditions were used to stress the formulation in order to predict its long-term stability results. […] The primary degradant is DHEA. […] The materials on accelerated storage become more cohesive with time as evidenced by clumping during sample weighing for chemical analysis. […] This is a considerable disadvantage since lactose is the most commonly used inhalation excipient for dry powder formulations. Continuing with the virtually anhydrous form would mean limiting formulations to neat powder or undertaking more comprehensive safety studies to use a novel excipient.

Setting [11] is: 15° C., 20 mM Na^+, Ksp 1316 mM^2.

In the case of `C[C@@](O)(CCO)CC(=O)O` [MVA, mevalonic acid], the “prevention of DHEA-induced S phase depletion” value with HT-29 SF cells [1] (48 hours) is “partially prevented this effect”.

For `CC(C)CCC[C@@H](C)[C@H]1CC[C@H]2[C@@H]3CC=C4C[C@@H](O)CC[C@]4(C)[C@H]3CC[C@]12C` [CH, cholesterol], in the data set on HT-29 SF cells [1] (72 hours), the “prevention of DHEA-induced S phase depletion” value is recorded as “no effect”.

For the compound `C[C@]12CC[C@H](OS(=O)(=O)[O-])CC1=CC[C@@H]1[C@@H]2CC[C@]2(C)C(=O)CC[C@@H]12.[Na+]` [Anhydrous DHEA-S], the “mean particle size by light microscope” value in data set [2] is 2.4 μm and 2.0 μm.

In the case of `C[C@]12CC[C@H](O)CC1=CC[C@@H]1[C@@H]2CC[C@]2(C)C(=O)CC[C@@H]12` [DHEA, 3β-hydroxyandrost-5-en-17-one], the “effect on tissue adenosine” value in data set [3] (rat, in vivo) is listed as “multi-organ depletion of adenosine”. In the data set on HT-29 SF cells [4] (200 μM DHEA, after 24 hours), the cell cycle distribution result was “more rapid increase in the percentage of cells in G1 and a decreased proportion of cells in S phase”. Besides, in the data set with HT-29 SF cells [4] (25, 50, 200 μM, 24-72 hours), the cell cycle effect result is on record as “G1 block in HT-29 SF cells in a time-and dose-dependent manner”.

A word on the EC50: it is the midpoint of the concentration-response curve. `C[C@]12CC[C@H](OS(=O)(=O)[O-])CC1=CC[C@@H]1[C@@H]2CC[C@]2(C)C(=O)CC[C@@H]12.[Na+]` [DHEA-S, sodium dehydroepiandrostenone sulfate]: in [5] (at 0.1 uM, percent inhibition of control histamine secretion), the “maximal effect, inhibition of mast cell degranulation” value is 69.9%. The “inhibition of mast cell degranulation” value in data set [5] (rat peritoneal mast cells, compound 48/80) is reported as “concentration-dependent inhibition”. Moreover, the concentration giving a half-maximal response (EC50) in data set [5] (rat peritoneal mast cells, compound 48/80, histamine secretion, read-out: EC50, inhibition of mast cell degranulation) was 170 nM. The “degradation during jet milling micronization” value in data set [6] was “no detectable degradation”. The solution stability entry in data set [7] (7.5 mg/mL of DHEA-S in 0.12% NaCl, RT) is recorded as “stable for at least one day at RT”. Further, the entries for the “appearance / solution stability” value in [7] (40° C.) and in [7] (RT (24-26° C.)) were “became cloudy after two days of storage” and “slight precipitate is observed on the third day”, respectively. Besides, in data set [8] (setting [11]), the “estimated DHEA-S solution concentration” value is reported as 10.7 mg/mL. In addition, in data set [8] (setting [11]), the “estimated DHEA-S^− solution concentration” value is 27.5 mM. Also, the “solubility as a function of NaCl concentration” value in [8] (RT and refrigerated) is “decrease with NaCl concentration”. Besides, the “effect of 20 mM phosphate buffer on solubility” value in data set [8] (RT, buffered vs unbuffered) is recorded as “suppress the solubility”. The “solubility under assay conditions” value in data set [9] is listed as “highly limited”.

Consider `CC12CCC3C(CC=C4CC(OS(=O)(=O)[O-])CCC43C)C1CCC2=O.[Na+]` (centres unmarked) [DHEA-S Dihydrate], for which the “DHEA generated on storage” value in data set [10] is listed as “virtually no DHEA generated”.

For `C[C@]12CCC(=O)C=C1CC[C@@H]1[C@@H]2CC[C@@]2(C)[C@H]1CC[C@]2(C)O` [Methyltestosterone], the “effect on tissue adenosine” value in [3] (rats, administered daily for two weeks) was “multi-organ depletion of adenosine”.
